Data set [1] can be described thus: refractive index (Na D-line) (dimensionless). To be noted: 298.2 K; 101.33 kPa; Liquid; Standard Abbe refractometry.
The nature of data set [2]: relative permittivity at zero frequency (dimensionless). To be noted: 298.2 K; 101.33 kPa; Liquid; Parallel plate capacitor.
The conditions of data set [3]: 298.15 K; 101.33 kPa; Liquid; Vibrating tube method.

± gives the expanded uncertainty stated by the source.

For `Cc1ccccc1` [toluene], in data set [1], the refractive index worked out at 1.4938 ± 0.0007. Moreover, the “relative permittivity at zero frequency” value in data set [2] came to 2.38 ± 0.01. Moreover, the mass density in data set [3] was 862.02 ± 0.24 kg/m3.

For `C1CCCCC1` [cyclohexane], in data set [1], the refractive index is reported as 1.4234 ± 0.0007. In addition, in data set [2], the “relative permittivity at zero frequency” value is listed as 2.02 ± 0.01. Moreover, the mass density in data set [3] is on record as 773.78 ± 0.24 kg/m3.

For the molecule `CC1CCCCC1` [methylcyclohexane], in data set [1], the refractive index is 1.4198 ± 0.0007. Also, the “relative permittivity at zero frequency” value in data set [2] is recorded as 2.01 ± 0.01. Moreover, the mass density in data set [3] was 764.92 ± 0.24 kg/m3.

In the case of `O` [water], in data set [1], the refractive index was 1.3325 ± 0.0007.

The term refractive index denotes the speed of light in vacuum divided by its phase velocity in the sample. As a reminder, the mass density is mass per unit of volume.
